Experimental data taken from patent US11976083B2, “Inhibitors of peptidylarginine deiminases” (Gilead Sciences, Inc., priority 2020, dated 2024).

Biological target: T1, human PAD4 (Homo sapiens, UniProt Q9UM07)
T1 construct: human PAD4 (NM_012387), A2-P663, was PCR amplified; His-SUMO (N, cleaved yes); made in house; host or cells: E. coli BL21(DE3)
Assay: In vitro PAD4 BAEE biochemical assay
Details: BAEE substrate 3 mM, 5 nM PAD4, 2 mM calcium chloride; geometric mean of multiple experiments
In short: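 Ammonia produced by BAEE deimination (3 mM substrate, 2 h, 25 °C) was read as fluorescent isoindole after o-phthalaldehyde/DTT derivatization, ex 405 nm/em 535 nm. Human PAD4 at 5 nM final, 2 mM calcium, pH 7.6 MOPS; compound preincubated 30 min. IC50s, normalized to BB-Cl-Amidine and DMSO controls, were geometric-mean averaged.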

T1 sequence (Q9UM07 2-663): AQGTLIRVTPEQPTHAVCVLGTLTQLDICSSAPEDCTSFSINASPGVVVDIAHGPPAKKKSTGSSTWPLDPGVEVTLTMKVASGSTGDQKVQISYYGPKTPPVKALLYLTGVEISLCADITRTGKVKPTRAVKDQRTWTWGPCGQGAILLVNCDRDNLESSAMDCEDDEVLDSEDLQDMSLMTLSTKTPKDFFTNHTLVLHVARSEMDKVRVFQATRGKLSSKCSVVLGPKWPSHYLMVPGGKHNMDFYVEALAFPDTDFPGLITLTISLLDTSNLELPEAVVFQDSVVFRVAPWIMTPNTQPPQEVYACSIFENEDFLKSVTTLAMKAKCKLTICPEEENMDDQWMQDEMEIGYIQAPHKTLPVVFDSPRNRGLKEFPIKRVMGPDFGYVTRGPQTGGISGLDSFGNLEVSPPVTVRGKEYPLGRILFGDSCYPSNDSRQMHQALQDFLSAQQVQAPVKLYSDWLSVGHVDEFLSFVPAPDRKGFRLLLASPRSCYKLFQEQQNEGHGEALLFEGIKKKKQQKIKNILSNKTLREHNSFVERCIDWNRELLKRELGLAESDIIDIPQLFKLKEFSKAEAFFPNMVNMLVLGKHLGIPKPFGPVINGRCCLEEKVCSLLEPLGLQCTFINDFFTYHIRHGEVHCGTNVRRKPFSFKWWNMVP

SMILES | IC50 [nM]
COc1cc(C(=O)N2CC[C@@H](OC)[C@@H](N)C2)cc2nc(-c3cc4ccc5nc4n3CC/C=C\C[C@H]3C[C@H]3C(=O)N[C@@H]5C)n(C)c12 [Example 517, (2~{R},5~{R},7~ {S},9~{Z})-14-[5-[(3~{S},4~{R})-3-amino-4-methoxy-piperidine-1-carbonyl]-7-methoxy-1-methyl-benzimidazol-2-yl]-2-methyl-3,13,19-triazatetracyclo[11.5.2.0^ {5,7}.0^{16,20}] icosa-1(19),9,14,16(20), 17-pentaen-4-one] | 128
COc1cc(C(=O)N[C@H]2CNCC[C@@H]2F)cc2nc(-c3cc4ccc5nc4n3CCCCC[C@H]3C[C@H]3C(=O)N[C@@H]5C)n(C)c12 [Example 518] | 49
C[C@H]1NC(=O)[C@@H]2C[C@@H]2C/C=C\CCn2c(-c3nc4cc(C(=O)N[C@H]5CNCC[C@@H]5F)c(F)cc4n3C3CC3)cc3ccc1nc32 [Example 519, 1-cyclopropyl-6-fluoro-~{N}-[(3~{S},4~{S})-4-fluoro-3-piperidyl]-2-[(2~{R}, 5~{R},7~{S},9~{Z})-2-methyl-4-oxo-3,13,19-triazatetracyclo[11.5.2.0^ {5,7}.0^{16,20}]icosa-1 (19),9,14,16(20),17-pentaen-14-yl]benzimidazole-5-carboxamide] | 44
C[C@H]1NC(=O)[C@@H]2C[C@@H]2CCCCCn2c(-c3nc4cc(C(=O)N[C@H]5CNCC[C@@H]5F)c(F)cc4n3C3CC3)cc3ccc1nc32 [Example 520, 1-cyclopropyl-6-fluoro-~ {N}-[(3~{S},4~{S})-4-fluoro-3-piperidyl]-2-[(2~{R},5~{R},7~{S})-2-methyl-4-oxo-3,13,19-triazatetracyclo[11.5.2.0^ {5,7}.0^{16,20}]icosa-1(19),14,16(20),17-tetraen-14-yl]benzimidazole-5-carboxamide] | 35
C[C@H]1NC(=O)[C@@H]2C[C@@H]2C/C=C\CCn2c(-c3nc4cc(C(=O)N[C@H]5CNCC[C@@H]5F)c(F)cc4n3C)cc3ccc1nc32 [Example 521, 6-fluoro-~{N}-[(3~ {S},4~{S})-4-fluoro-3-piperidyl]-1-methyl-2-[(2~{R},5~{R},7~ {S},9~{Z})-2-methyl-4-oxo-3,13,19-triazatetracyclo[11.5.2.0^ {5,7}.0^{16,20}]icosa-1(19),9,14,16(20), 17-pentaen-14-yl] benzimidazole-5-carboxamide] | 76
C[C@H]1NC(=O)[C@@H]2C[C@@H]2CCCCCn2c(-c3nc4cc(C(=O)N[C@H]5CNCC[C@@H]5F)c(F)cc4n3C)cc3ccc1nc32 [Example 522, 6-fluoro-~{N}-[(3~ {S},4~{S})-4-fluoro-3-piperidyl]-1-methyl-2-[(2~{R},5~{R},7~{S})-2-methyl-4-oxo-3,13,19-triazatetracyclo[11.5.2.0^ {5,7).0^{16,20}]icosa-1(19),14,16(20), 17-tetraen-14-yl] benzimidazole-5-carboxamide] | 40
COc1cc(C(=O)N[C@H]2CNCC[C@@H]2F)cc2nc(-c3cc4ccc5nc4n3CCCCC[C@@H]3C[C@@H]3C(=O)N[C@@H]5C)n(C)c12 [Example 523, ~{N}-[(3~{S},4~ {S})-4-fluoro-3-piperidyl]-7-methoxy-1-methyl-2-[(2~{R},5~ {S},7~{R})-2-methyl-4-oxo-3,13,19-triazatetracyclo [11.5.2.0^{5,7}.0^{16,20}]icosa-1(19),14,16(20), 17-tetraen-14-yl] benzimidazole-5-carboxamide] | 205
COc1cc(C(=O)N2CC[C@@H](OC)[C@@H](N)C2)cc2nc(-c3cc4ccc5nc4n3CCCCC[C@@H]3C[C@@H]3C(=O)N[C@@H]5C)n(C)c12 [Example 524, (2~{R},5~{S},7~{R})-14-[5-[(3~{S},4~{R})-3-amino-4-methoxy-piperidine-1-carbonyl]-7-methoxy-1-methyl-benzimidazol-2-yl]-2-methyl-3,13,19-triazatetracyclo[11.5.2.0^ {5,7}.0^{16,20}]icosa-1(19),14,16(20),17-tetraen-4-one] | 388
COc1cc(C(=O)N2CC[C@@H](OC)[C@@H](N)C2)cc2nc(-c3cc4ccc5nc4n3CCCCC[C@H]3C[C@H]3C(=O)N[C@@H]5C)n(C)c12 [Example 525, (2~{R},5~{R},7~ {S})-14-[5-[(3~{S},4~{R})-3-amino-4-methoxy-piperidine-1-carbonyl]-7-methoxy-1-methyl-benzimidazol-2-yl]-2-methyl-3,13,19-triazatetracyclo [11.5.2.0^{5,7}.0^{16,20}] icosa-1(19),14,16(20), 17-tetraen-4-one] | 78
COc1cc(C(=O)N[C@H]2CNC[C@H](O)C2)cc2nc(-c3cc4ccc5nc4n3CCCCCCC(C)(C)C(=O)N[C@@H]5C)n(C)c12 [Example 526, ~{N}-[(3~{R},5~{R})-5-hydroxy-3-piperidyl]-7-methoxy-1-methyl-2-[(11~{R})-8,8,11-trimethyl-9-oxo-1,10,19-triazatricyclo [10.5.2.0^{15,18}]nonadeca-12(19),13,15(18),16-tetraen-17-yl]benzimidazole-5-carboxamide] | 65
COc1cc(C(=O)N2CCC(OC3CC3)C(N)C2)cc2nc(-c3cc4ccc5nc4n3CCCCCCC(C)(C)C(=O)N[C@@H]5C)n(C)c12 (some centres unmarked) [Example 527, (11~{R})-17-[5-[3-amino-4-(cyclopropoxy)piperidine-1-carbonyl]-7-methoxy-1-methyl-benzimidazol-2-yl]-8,8,11-trimethyl-1,10,19-triazatricyclo[10.5.2.0^ {15,18}]nonadeca-12(19),13,15(18), 16-tetraen-9-one] | 215
COc1cc(C(=O)N2CCC[C@@H](N)[C@H]2C)cc2nc(-c3cc4ccc5nc4n3CCCCCc3nccnc3C(=O)N[C@@H]5C)n(C)c12 [Example 528, (2~{R})-17-[5-[(2~ {R},3~{R})-3-amino-2-methyl-piperidine-1-carbonyl]-7-methoxy-1-methyl-benzimidazol-2-yl]-2-methyl-3,6,9,16,22-pentazatetracyclo [14.5.2.0^{5,10}.0^{19, 23}]tricosa-1(22),5(10), 6,8,17,19(23),20-heptaen-4-one] | 55
COc1cc(C(=O)N[C@@H]2CNC[C@@H](O)C2)cc2nc(-c3cc4ccc5nc4n3CCCCCCC(C)(C)C(=O)N[C@@H]5C)n(C)c12 [Example 529, ~{N}-[(3~{S},5~{S})-5-hydroxy-3-piperidyl]-7-methoxy-1-methyl-2-[(11~{R})-8,8,11-trimethyl-9-oxo-1,10,19-triazatricyclo[10.5.2.0^{15,18}]nonadeca-12(19),13,15(18),16-tetraen-17-yl]benzimidazole-5-carboxamide] | 409
COc1cc(C(=O)N[C@H]2CNC[C@H](O)C2)cc2nc(-c3cc4ccc5nc4n3CCCCCCC(C)(C)C(=O)N[C@@H]5C)n(C)c12 [Example 530, ~{N}-[(3~{R},5~ {R})-5-hydroxy-3-piperidyl]-7-methoxy-1-methyl-2-[(11~{R})-8,8,11-trimethyl-9-oxo-1,10,19-triazatricyclo [10.5.2.0^{15,18}]nonadeca-12(19),13,15(18),16-tetraen-17-yl]benzimidazole-5-carboxamide] | 51
